# Results published in patent publication US7615643B2 (SmithKline Beecham Corporation, priority 2006, dated 2009).
# Biological target: T1, PLK1 (Homo sapiens, UniProt P53350)
# T1 construct: PLK kinase domain (amino acids 21-346 preceded by MKKGHHHHHHD); made in house; host or cells: baculovirus infected T. ni cells
# Assay: Assay for inhibition of PLK1 (SPA kinase assay)
# Type: biochemical
# Conditions: 1 μM ATP, 2 nM PLK1 kinase domain; for IC50: read-out: PLK1 pIC50 (converted)
# In short: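 His-tagged PLK1 kinase domain (aa 21-346, baculovirus/T. ni) at 2 nM with 1 μM ATP plus 33P-γ-ATP and 1 μM biotinylated peptide in 25 mM HEPES pH 7.2, 15 mM MgCl2, 1 mM DTT, 0.15 mg/mL BSA; 1-1.5 h at 22° C. Streptavidin SPA capture read; percent inhibition versus DMSO, EDTA background.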
# T1 sequence (P53350 21-346): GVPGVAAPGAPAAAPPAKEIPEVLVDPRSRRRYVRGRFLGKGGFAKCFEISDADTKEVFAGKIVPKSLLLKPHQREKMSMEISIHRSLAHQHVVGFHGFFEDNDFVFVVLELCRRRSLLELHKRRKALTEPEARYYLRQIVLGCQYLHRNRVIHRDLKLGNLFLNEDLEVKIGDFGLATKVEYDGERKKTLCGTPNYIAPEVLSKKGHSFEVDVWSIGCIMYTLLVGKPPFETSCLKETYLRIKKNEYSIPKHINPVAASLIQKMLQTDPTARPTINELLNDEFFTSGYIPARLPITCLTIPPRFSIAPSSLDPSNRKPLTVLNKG
IC50,PLK1 pIC50,SMILES
< 100 nM,–,"C[C@@H](Oc1cc(-n2cnc3ccc(CS(C)(=O)=O)cc32)sc1C(N)=O)c1cccc(OC2CCN(C)CC2)c1Cl [Example 55, 3-[((1R)-1-{2-chloro-3-[(1-methyl-4-piperidinyl)oxy]phenyl}ethyl)oxy]-5,6-{6-[(methylsulfonyl)methyl]-1H-benzimidazol-1-yl}-2-thiophenecarboxamide]"
< 100 nM,–,"C[C@@H](Oc1cc(-n2cnc3ccc(CS(C)(=O)=O)cc32)sc1C(N)=O)c1cccc(OCC2CCNCC2)c1Cl [Example 56, 3-[((1R)-1-{2-chloro-3-[(4-piperidinylmethyl)oxy]phenyl}ethyl)oxy]-5-{6-[(methylsulfonyl)methyl]-1H-benzimidazol-1-yl}-2-thiophenecarboxamide]"
< 100 nM,–,"C[C@@H](Oc1cc(-n2cnc3ccc(CS(C)(=O)=O)cc32)sc1C(N)=O)c1cccc(OCC2CCCN2C)c1Cl (stereo partly drawn) [Example 57, 3-({(1R)-1-[2-Chloro-3-({[(2S)-1-methyl-2-pyrrolidinyl]metliyl}oxy)phenyl]ethyl}oxy)-5-{6-[(methylsulfonyl)methyl]-1H-benzimidazol-1-yl}-2-thiophenecarboxamide]"
–,+++ (pIC50>7),"C[C@@H](Oc1cc(-n2cnc3ccc(S(C)(=O)=O)cc32)sc1C(N)=O)c1cccc(OC2CCNCC2)c1Cl [Example 60, 3-({(1R)-1-[2-chloro-3-(4-piperidineloxy)phenyl]ethyl}oxy)-5-[6-(methylsulfonyl)-1H-benzimidazol-1-yl]-2-thiophenecarboxamide]"
< 100 nM,–,"C[C@@H](Oc1cc(-n2cnc3cc(OC(F)(F)F)ccc32)sc1C(N)=O)c1cccc(OC2CCNCC2)c1Cl [Example 61, 3-({(1R)-1-[2-chloro-3-(4-piperidinyloxy)phenyl]ethyl}oxy)-5-{5-[(trifluoromethyl)oxy]-1H-benzimidazol-1-yl}-2-thiophenecarboxamide]"
< 100 nM,–,"C[C@@H](Oc1cc(-n2cnc3cc(OC(F)(F)F)ccc32)sc1C(N)=O)c1cccc(OC2CCN(C)CC2)c1Cl [Example 62, 3-[((1R)-1-{2-chloro-3-[(1-methyl-4-piperidinyl)oxy]phenyl}ethyl)oxy]-5-{5-[(trifluoromethyl)oxy]-1H-benzimidazol-1-yl}-2-thiophenecarboxamide]"
< 100 nM,–,"C[C@@H](Oc1cc(-n2cnc3ccc(OC(F)(F)F)cc32)sc1C(N)=O)c1cccc(OC2CCNCC2)c1Cl [Example 63, 3-({(1R)-1-[2-chloro-3-(4-piperidinyloxy)phenyl]ethyl}oxy)-5-{6-[(trifluoromethyl)oxy]-1H-benzimidazol-1-yl}-2-thiophenecarboxamide]"
< 100 nM,–,"C[C@@H](Oc1cc(-n2cnc3ccc(OC(F)(F)F)cc32)sc1C(N)=O)c1cccc(OC2CCN(C)CC2)c1Cl [Example 64, 3-[((1R)-1-{2-chloro-3-[(1-methyl-4-piperidinyl)oxy]phenyl}ethyl)oxy]-5-{6-[(trifluoromethyl)oxy]-1H-benzimidazol-1-yl}-2-thiophenecarboxamide]"
< 100 nM,–,"C[C@@H](Oc1cc(-n2cnc3cc(F)c(F)cc32)sc1C(N)=O)c1cccc(OC2CCNCC2)c1Cl [Example 65, 3-({(1R)-1-[2-chloro-3-(4-piperidinyloxy)phenyl]ethyl}oxy)-5-(5,6-difluoro-1H-benzimidazol-1-yl)-2-thiophenecarboxamide]"
< 100 nM,–,"C[C@@H](Oc1cc(-n2cnc3cc(F)c(F)cc32)sc1C(N)=O)c1cccc(OC2CCN(C)CC2)c1Cl [Example 66, 3-[((1R)-1-{2-chloro-3-[(1-methyl-4-piperidinyl)oxy]phenyl}ethyl)-oxy]-5-(5,6-difluoro-1H-benzimidazol-1-yl)-2-thiophenecarboxamide]"
< 100 nM,–,"C[C@@H](Oc1cc(-n2cnc3cc(Cl)c(F)cc32)sc1C(N)=O)c1cccc(OC2CCNCC2)c1Cl [Example 67, 5-(5-Chloro-6-fluoro-1H-benzimidazol-1-yl)-3-({(1R)-1-[2-chloro-3-(4-piperidinyloxy)phenyl]ethyl}oxy)-2-thiophenecarboxamide]"
< 100 nM,–,"C[C@@H](Oc1cc(-n2cnc3cc(Cl)c(F)cc32)sc1C(N)=O)c1cccc(OC2CCN(C)CC2)c1Cl [Example 68, 5-(5-Chloro-6-fluoro-1H-benzimidazol-1-yl)-3-[((1R)-1-{2-chloro-3-[(1-methyl-4-piperidinyl)oxy]phenyl}ethyl)oxy]-2-thiophenecarboxamide]"
< 100 nM,–,"C[C@@H](Oc1cc(-n2cnc3cc(F)c(Cl)cc32)sc1C(N)=O)c1cccc(OC2CCNCC2)c1Cl [Example 69, 5-(6-Chloro-5-fluoro-1H-benzimidazol-1-yl)-3-({(1R)-1-[2-chloro-3-(4-piperidinyloxy)phenyl]ethyl}oxy)-2-thiophenecarboxamide]"
< 100 nM,–,"C[C@@H](Oc1cc(-n2cnc3cc(F)c(Cl)cc32)sc1C(N)=O)c1cccc(OC2CCN(C)CC2)c1Cl [Example 70, 5-(6-Chloro-5-fluoro-1H-benzimidazol-1-yl)-3-[((1R)-1-{2-chloro-3-[(1-methyl-4-piperidinyl)oxy]phenyl}ethyl)oxy]-2-thiophenecarboxamide]"
< 100 nM,–,"C[C@@H](Oc1cc(-n2cnc3cc(Cl)c(Cl)cc32)sc1C(N)=O)c1cccc(OC2CCNCC2)c1Cl [Example 71, 3-({(1R)-1-[2-Chloro-3-(4-piperidinyloxy)phenyl]ethyl}oxy)-5-(5,6-dichloro-1H-benzimidazol-1-yl)-2-thiophenecarboxamide]"
< 100 nM,–,"C[C@@H](Oc1cc(-n2cnc3cc(Cl)c(Cl)cc32)sc1C(N)=O)c1cccc(OC2CCN(C)CC2)c1Cl [Example 72, 3-[((1R)-1-{2-chloro-3-[(1-methyl-4-piperidinyl)oxy]phenyl}ethyl)oxy]-5-(5,6-dichloro-1H-benzimidazol-1-yl)-2-thiophenecarboxamide]"
< 100 nM,–,"CC(Oc1cc(-n2cnc3cc(-c4cnn(C)c4)ccc32)sc1C(N)=O)c1ccnc(OC2CCN(C)CC2)c1 (stereo not shown) [Example 80, 3-[(1-{2-[(1-Methyl-4-piperidinyl)oxy]-4-pyridinyl}ethyl)oxy]-5-[5-(1-methyl-1H-pyrazol-4-yl)-1H-benzimidazol-1-yl]-2-thiophenecarboxamide]"
< 100 nM,–,"Cn1cc(-c2ccc3c(c2)ncn3-c2cc(OCc3cccc(OC4CCNCC4)c3)c(C(N)=O)s2)cn1 [Example 83, 5-[5-(1-Methyl-1H-pyrazol-4-yl)-1H-benzimidazol-1-yl]-3-({[3-(4-piperidinyloxy)phenyl]methyl}oxy)-2-thiophenecarboxamide]"
< 100 nM,–,"CN1CCC(Oc2cccc(COc3cc(-n4cnc5cc(-c6cnn(C)c6)ccc54)sc3C(N)=O)c2)CC1 [Example 84, 3-[({3-[(1-Methyl-4-piperidinyl)oxy]phenyl}methyl)oxy]-5-[5-(1-methyl-1H-pyrazol-4-yl)-1H-benzimidazol-1-yl]-2-thiophenecarboxamide]"
< 100 nM,–,"CC(Oc1cc(-n2cnc3cc(-c4cnn(C)c4)ccc32)sc1C(N)=O)c1cc(OC2CCNCC2)ccn1 (stereo not shown) [Example 85, 5-[5-(1-Methyl-1H-pyrazol-4-yl)-1H-benzimidazol-1-yl]-3-({1-[4-(4-piperidinyloxy)-2-pyridinyl]ethyl}oxy)-2-thiophenecarboxamide]"
< 100 nM,–,"Cc1nnc(-c2ccc3c(c2)ncn3-c2cc(O[C@H](C)c3cccc(OC4CCNCC4)c3Cl)c(C(N)=O)s2)o1 [Example 87, 3-({(1R)-1-[2-Chloro-3-(4-piperidinyloxy)phenyl]ethyl}oxy)-5-[5-(5-methyl-1,3,4-oxadiazol-2-yl)-1H-benzimidazol-1-yl]-2-thiophenecarboxamide]"
< 100 nM,–,"Cc1nnc(-c2ccc3c(c2)ncn3-c2cc(O[C@H](C)c3cccc(OC4CCN(C)CC4)c3Cl)c(C(N)=O)s2)o1 [Example 88, 3-[((1R)-1-{2-chloro-3-[(1-methyl-4-piperidinyl)oxy]phenyl}ethyl)oxy]-5-[5-(5-methyl-1,3,4-oxadiazol-2-yl)-1H-benzimidazol-1-yl]-2-thiophenecarboxamide]"
